Counter-ions that a name gives are not always drawn. Activity calls are given as the source filed them.
Experiments:
[1] = molecular target: Aryl hydrocarbon receptor (Homo sapiens, UniProt P35869); conditions: Potency;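 also: confirmatory quantitative high-throughput screen measuring activation of the AhR signaling pathway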
[2] = molecular target: T1, Mitochondrial peptide methionine sulfoxide reductase (Bos taurus, UniProt P54149); format: functional;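 as to IC50: absorbance read-out, biochemical high-throughput dose-response screen for MsrA inhibitors, confirmatory; recombinant bovine MsrA coupled to E. coli TrxB with NADPH and selenocystamine; potency is for inhibitors of MsrA activity on DMSO substrate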
T1 sequence (P54149 whole entry): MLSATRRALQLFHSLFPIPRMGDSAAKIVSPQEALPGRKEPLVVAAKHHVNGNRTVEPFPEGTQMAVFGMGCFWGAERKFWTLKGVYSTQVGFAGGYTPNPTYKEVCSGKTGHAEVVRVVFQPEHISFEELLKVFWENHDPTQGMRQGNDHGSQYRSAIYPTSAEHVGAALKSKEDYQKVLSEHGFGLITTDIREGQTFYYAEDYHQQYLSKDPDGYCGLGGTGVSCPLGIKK

[3] = molecular target: T1, Mitochondrial peptide methionine sulfoxide reductase; assay: Absorbance-based biochemical high throughput dose response assay for activators of Methionine sulfoxide reductase A (MsrA).; format: functional
[4] = activation of miR-122 Renilla sensor silencing – cell-based, Huh7 psiCHECK-miR122, Renilla luciferase, cherry-picked, dose response (AID 651956); format: functional;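 also: huh7 hepatoma cells stably carrying a psiCHECK-2 miR-122 sensor plasmid; renilla luciferase signal reporting endogenous miR-122 activity after 48 h compound exposure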
[5] = IGROV1 cell killing – plate reader, dry powder samples, PAX8 inhibitor project, dose response (AID 743043); format: functional, cell-based; conditions: IGROV-1
[6] = viability loss in LCL cells – cell-based, plate reader, dry powder, set 2, cytotoxicity control, dose response (AID 624367); format: functional
[7] = cytotoxicity in HEK293 background cells – cell-based, dry powder, set 2, counter-screen for EBV LMP1 inhibitor project, dose response (AID 624374); format: functional
[8] = TNFa-induced NF-kB reporter signal decrease – HEK293 LMP1 reporter cells, dry powder, set 2, selectivity assay for EBV LMP1 NF-kB inhibitor project, dose response (AID 624369); format: functional
[9] = molecular target: Paired box protein Pax-8 (Homo sapiens, UniProt Q06710); assay: PAX8 transcriptional activity inhibition in RMG-I – RMG-I cells, luciferase, cherry-pick, dose response (AID 687027); format: functional, cell-based;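 also: luciferase reporter driven by Pax8 target thyroperoxidase promoter measured by SteadyGlo luminescence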
Sequence of Paired box protein Pax-8 (Q06710 whole entry, the tested form may be a part): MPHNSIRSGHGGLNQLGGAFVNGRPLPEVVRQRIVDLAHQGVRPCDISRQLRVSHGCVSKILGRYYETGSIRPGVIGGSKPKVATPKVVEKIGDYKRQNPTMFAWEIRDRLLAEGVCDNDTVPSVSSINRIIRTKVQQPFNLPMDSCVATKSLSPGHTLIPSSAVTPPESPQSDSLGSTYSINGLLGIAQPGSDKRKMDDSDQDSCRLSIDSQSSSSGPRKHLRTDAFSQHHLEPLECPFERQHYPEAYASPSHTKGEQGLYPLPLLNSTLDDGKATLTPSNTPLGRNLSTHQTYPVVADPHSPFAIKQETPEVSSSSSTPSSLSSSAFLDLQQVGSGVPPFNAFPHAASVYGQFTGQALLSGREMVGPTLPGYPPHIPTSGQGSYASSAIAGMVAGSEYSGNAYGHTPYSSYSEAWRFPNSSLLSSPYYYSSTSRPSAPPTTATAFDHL

[10] = molecular target: Arf-GAP with SH3 domain, ANK repeat and PH domain-containing protein 1 (Homo sapiens, UniProt Q9ULH1); format: functional;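 also: biochemical fluorescence polarization dose–response screen measuring inhibition of ASAP1; ASAP1 GAP domain stimulating GTP hydrolysis by truncated human ARF1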
Sequence of Arf-GAP with SH3 domain, ANK repeat and PH domain-containing protein 1 (Q9ULH1 whole entry, the tested form may be a part): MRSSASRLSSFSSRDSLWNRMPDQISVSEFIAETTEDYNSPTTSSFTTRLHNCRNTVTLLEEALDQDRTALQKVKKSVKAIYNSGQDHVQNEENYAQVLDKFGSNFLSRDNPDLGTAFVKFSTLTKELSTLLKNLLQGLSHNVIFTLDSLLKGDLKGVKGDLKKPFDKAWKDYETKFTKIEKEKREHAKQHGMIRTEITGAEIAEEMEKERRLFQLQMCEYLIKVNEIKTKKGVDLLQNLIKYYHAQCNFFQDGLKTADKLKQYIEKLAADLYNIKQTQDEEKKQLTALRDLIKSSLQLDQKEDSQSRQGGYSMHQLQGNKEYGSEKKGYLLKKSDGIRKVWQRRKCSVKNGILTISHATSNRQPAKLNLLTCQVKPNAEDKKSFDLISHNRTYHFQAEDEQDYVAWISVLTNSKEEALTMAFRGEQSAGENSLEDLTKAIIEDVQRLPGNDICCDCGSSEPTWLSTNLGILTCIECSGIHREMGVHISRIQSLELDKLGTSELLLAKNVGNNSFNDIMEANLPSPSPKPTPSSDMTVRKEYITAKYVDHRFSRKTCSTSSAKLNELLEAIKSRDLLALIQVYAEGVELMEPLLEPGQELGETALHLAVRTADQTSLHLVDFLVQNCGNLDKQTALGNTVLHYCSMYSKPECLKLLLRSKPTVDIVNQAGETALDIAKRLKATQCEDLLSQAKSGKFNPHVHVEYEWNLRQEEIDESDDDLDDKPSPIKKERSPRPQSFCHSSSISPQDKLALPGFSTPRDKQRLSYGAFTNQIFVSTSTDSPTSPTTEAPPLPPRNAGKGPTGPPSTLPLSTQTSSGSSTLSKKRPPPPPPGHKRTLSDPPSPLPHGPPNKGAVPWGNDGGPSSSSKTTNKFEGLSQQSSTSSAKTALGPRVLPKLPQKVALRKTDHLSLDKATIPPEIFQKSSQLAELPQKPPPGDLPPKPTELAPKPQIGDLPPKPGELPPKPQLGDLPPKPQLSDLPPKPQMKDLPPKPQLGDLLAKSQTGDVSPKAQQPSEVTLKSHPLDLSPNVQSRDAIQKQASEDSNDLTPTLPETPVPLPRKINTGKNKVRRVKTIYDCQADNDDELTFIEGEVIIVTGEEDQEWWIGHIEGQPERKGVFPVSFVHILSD

[11] = molecular target: T2, Small ubiquitin-related modifier 1 (Homo sapiens, UniProt P63165); assay: SUMO1 protein-protein binding blockers, potency – biochemical, FRET, dose response (AID 624383); format: functional; conditions: read-out: IC50_Mean
T2 sequence (P63165 whole entry): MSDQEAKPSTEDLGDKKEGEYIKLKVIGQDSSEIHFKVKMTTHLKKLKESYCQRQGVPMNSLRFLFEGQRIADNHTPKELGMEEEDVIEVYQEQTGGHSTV

[12] = molecular target: T2, Small ubiquitin-related modifier 1; assay: SUMO1 protein interaction blockers, potency – biochemical, fluorescence polarization, uHTS hits, dose response (AID 624382); format: functional; conditions: read-out: IC50_Mean
[13] = molecular target: Hepatocyte nuclear factor 4-alpha (Homo sapiens, UniProt P41235); format: functional, cell-based;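 also: biochemical luminescence-based dose-response counterscreen measuring inhibition of HNF4 dimerization, run alongside a screen for blockers of ABHD5–perilipin-5 interaction; split luciferase complementation of HNF4 fusion proteins in cell lysate measuring dimerization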
Sequence of Hepatocyte nuclear factor 4-alpha (P41235 whole entry, the tested form may be a part): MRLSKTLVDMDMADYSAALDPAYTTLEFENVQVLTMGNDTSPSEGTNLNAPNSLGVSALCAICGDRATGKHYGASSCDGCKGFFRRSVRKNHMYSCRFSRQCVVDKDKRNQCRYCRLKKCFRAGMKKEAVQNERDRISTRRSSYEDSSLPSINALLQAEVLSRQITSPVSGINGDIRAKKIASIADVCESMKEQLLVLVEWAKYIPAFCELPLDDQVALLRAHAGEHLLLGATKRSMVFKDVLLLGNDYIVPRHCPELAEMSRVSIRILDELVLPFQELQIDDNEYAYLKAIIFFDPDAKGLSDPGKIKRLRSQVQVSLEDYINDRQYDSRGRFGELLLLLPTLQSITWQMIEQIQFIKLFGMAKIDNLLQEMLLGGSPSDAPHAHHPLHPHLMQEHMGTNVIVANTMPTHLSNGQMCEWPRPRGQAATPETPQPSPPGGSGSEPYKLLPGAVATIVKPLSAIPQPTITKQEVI

Sequence of Aryl hydrocarbon receptor (P35869 whole entry): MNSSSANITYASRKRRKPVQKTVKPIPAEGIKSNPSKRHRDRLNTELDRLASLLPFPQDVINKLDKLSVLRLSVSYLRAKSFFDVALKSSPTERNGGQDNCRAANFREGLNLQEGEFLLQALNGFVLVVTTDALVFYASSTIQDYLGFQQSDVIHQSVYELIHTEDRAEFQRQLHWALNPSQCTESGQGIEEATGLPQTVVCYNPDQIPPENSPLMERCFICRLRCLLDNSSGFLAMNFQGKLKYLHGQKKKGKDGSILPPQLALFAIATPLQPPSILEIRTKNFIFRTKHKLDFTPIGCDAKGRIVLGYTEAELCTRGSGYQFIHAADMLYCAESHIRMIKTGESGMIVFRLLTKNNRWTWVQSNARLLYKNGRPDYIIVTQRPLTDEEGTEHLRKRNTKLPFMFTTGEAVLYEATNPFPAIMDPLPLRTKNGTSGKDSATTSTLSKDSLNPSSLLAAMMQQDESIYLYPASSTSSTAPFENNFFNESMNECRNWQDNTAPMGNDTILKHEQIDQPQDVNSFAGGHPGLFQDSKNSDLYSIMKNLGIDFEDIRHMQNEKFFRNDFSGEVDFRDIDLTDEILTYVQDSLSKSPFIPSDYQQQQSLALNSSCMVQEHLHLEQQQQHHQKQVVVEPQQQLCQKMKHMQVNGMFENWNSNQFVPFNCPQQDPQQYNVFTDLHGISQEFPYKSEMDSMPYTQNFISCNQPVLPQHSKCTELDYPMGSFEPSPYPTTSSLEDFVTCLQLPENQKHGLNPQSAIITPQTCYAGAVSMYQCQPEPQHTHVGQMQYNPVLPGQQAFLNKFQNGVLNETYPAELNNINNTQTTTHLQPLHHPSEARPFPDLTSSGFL

Which AC50 [1] does the source give for `O=C(O)C1(C(=O)Nc2ccc(Cl)cc2Cl)CC1` here?
Its AC50 is 50.1 µM (inconclusive).

With `Sc1nnc(C2CCCCC2)n1/N=C/c1ccccc1Br` as the molecule, how does the IC50 [2] read?
The IC50 was 155 µM (inactive).

With `CO/N=C/c1ccc(N2CCCC2)c([N+](=O)[O-])c1` as the molecule, how does the EC50 [3] read?
Its EC50 is > 104 µM (inactive).

With `CNC(=O)C[C@@H]1CC[C@@H]2[C@@H](COc3ccc(NC(=O)Nc4ccc(F)c(F)c4)cc3C(=O)N2C)O1` as the molecule, how does the AC50 [4] read?
The AC50 was 4.95 µM (active).

For `O=C(C[C@H]1CC[C@H]2[C@@H](COC[C@@H](O)CN2Cc2ccc3c(c2)OCO3)O1)Nc1ccc(-c2ccccc2)cc1`, which AC50 [5] is on record?
Its AC50 is 63.5 µM (active).

And the AbsAC35 [6]?
Its AbsAC35 is 77.89 µM.

And the AbsAC35 [7]?
Its AbsAC35 is 148.97 µM.

What about the AbsAC35 [8] of the same molecule?
Its AbsAC35 is 57.32 µM.

What about the AC50 [9] of the same molecule?
Its AC50 is 5.67 µM (active).

Which IC50 [10] does the source give for `COc1cc(/C=N/NC(=O)c2ccc(O)cc2)ccc1OCC(=O)Nc1cccc([N+](=O)[O-])c1` here?
Its IC50 is 25.3 µM (inactive).

What about the IC50 [11] of the same molecule?
The IC50 was 3.86 µM (active).

And the IC50 [12]?
Its IC50 is > 66.6 µM (inactive).

For `CCOc1cc(N)c(Cl)cc1C(=O)NCC1CN(Cc2ccc(F)cc2)CCO1` (stereo not drawn) [MOSAPRIDE CITRATE], which IC50 [13] is on record?
The IC50 was 12.7 µM (inactive).

Reference: ChEMBL document CHEMBL1201862, “PubChem BioAssay data set” (2004)
